In patent publication US9945845B2, “Methods of screening using amphibians” (priority 2009, dated 2018):
Counter-ions that a name gives are not always drawn. Like-named read-outs stand apart in the source and are kept apart here.

Experiments:
[1] = tested on: transgenic zebrafish expressing a fluorescent vascular reporter gene; conditions: Tran et al., 2007, cited from earlier work; for penetration of embryos: highly hydrophilic compounds
Xenopus embryos = conditions: for Lethality (NF) / edema or other phenotype in compound-treated Xenopus embryos/tadpoles (in words) / Onset (NF): 1% DMSO; for Type of edema Periocular: * = causing bulging eyes, # = bilateral, causing narrow-set eyes; for Lethality: — = no stage of lethality given; for Onset (NF): onset of edema
Procedure, shortened: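 Stage 31 (37 hpf) Xenopus embryos, five per well, exposed to 20 µM compound in 1% DMSO at 23 °C for 4 days. Edema, lethality and other external phenotypes were scored daily by two investigators at stages 39, 41, 45 and 47.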

HUVEC [2] = assay: HUVEC tube formation assay; format: cell-based, human; conditions: 1 μM in 0.1% DMSO; for activity at 1 µM: Homo sapiens, HUVEC
Description: (§1) Human umbilical vein endothelial cells (HUVEC) were purchased from PromoCell. […] HUVEC and LEC were cultured in endothelial basal medium EBM (Cambrex) supplemented with 20% fetal bovine serum (Invitrogen), antibiotic-antimycotics (100 U/ml penicillin, 100 μg/ml streptomycin, 250 ng/ml amphotericin; Invitrogen). 2 mM L-glutamine (Invitrogen), 10 μg/ml hydrocortisone (Fluka) and 25 μg/ml N^6,2′-O-dibutyryladenosine 3′,5′-cyclic monophosphate sodium salt (Fluka) for up to eleven passages.
The effect of the selected chemicals on the formation of tube-like structures was performed as follows. […] After overnight incubation at 37° C. the treated cell cultures were fixed with 4% paraformaldehyde. Each chemical treatment was performed in triplicate and the experiment was repeated at least three times. Three representative images of hotspots with tube-like structures were taken per well using a digital camera (AxioCam MRm, Carl Zeiss) mounted on an inverted microscope (Axiovert 200M, Carl Zeiss). The length of the tube-like structures was measured using the IPLab software (BD Biosciences). For each experimental condition, results are represented as average total tube length (μm) per area (three image fields).
The effects of the selected compounds on endothelial tube formation was assessed after over treatment of LEC and HUVEC cultures at a compound concentration of 1 μM in 0.1% DMSO. The length of the tube-like structures was measured using the IPLab software.

LEC [3] = assay: cells; format: cell-based, human; conditions: 1 μM in 0.1% DMSO; for activity at 1 µM: Homo sapiens
Procedure, shortened: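 HUVEC and LEC in EBM with 20% FBS, hydrocortisone and dibutyryl-cAMP, up to eleven passages, treated overnight at 37 °C with compound at 1 μM in 0.1% DMSO, then fixed in 4% paraformaldehyde. Read-out: total tube length (μm) per area over three hotspot images per well, triplicate wells.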

HUVEC [4] = assay: HUVEC cell proliferation assay; format: cell-based, human; conditions: 10 μM in 0.1% DMSO, 48 hours; for activity at 10 µM: Homo sapiens, HUVEC, 48 h, read-out: HUVEC proliferation
Description: as §1
(§2) The intensity of fluorescence, which is proportional to the number of viable cells, was measured using a microplate reader (SpectraMax Gemini EM; Molecular Devices). The chemical treatments were performed in five replicates.
(§3) The cell proliferation assays were performed by treating the endothelial cell cultures with compounds at a screening dose of 10 μM in 0.1% DMSO for 48 hours (FIG. 6a; Table 10).

LEC [5] = assay: LEC cell proliferation assay; format: cell-based, human; conditions: 10 μM in 0.1% DMSO, 48 hours; for activity at 10 µM: Homo sapiens, 48 h, read-out: LEC proliferation
Description: as §1, §2, §3

[6] = tested on: blood vessel development and/or lymphangiogenesis in Xenopus embryos; format: in vivo, Xenopus laevis; conditions: for ISV phenotype: intersomitic vessels; for PCV phenotype: posterior cardinal vein; for VVN phenotype: vitelline vein network; for blood vessel development phenotype (apj expression, in words): 20 μM from stage 31, fixed at stage 35/36; for lymph vessel development phenotype (vegfr3 expression, in words): 20 μM from stage 31, fixed at stage 42; for ALH phenotype: anterior lymph heart; for ALS phenotype: anterior lymph sac; for PLV phenotype: posterior lymph vessels
Procedure, shortened: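 Albino Xenopus embryos treated at 20 μM final (from 10-mM DMSO stocks) in screening medium, 7 per well, from stage 31 (37 hpf) to stage 35/36 (50 hpf) or 42 (80 hpf). Fixed in 4% paraformaldehyde and scored by whole-mount in situ hybridization: vasculogenesis and intersomitic vein angiogenesis at stage 35/36, lymph vessel development at stage 42.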

[7] = compounds causing edema, 20 μM, treatment from stage 31, scored to stage 47
[8] = overnight, read-out: HUVEC tube formation
[9] = overnight, read-out: LEC tube formation
[10] = read-out: HUVEC tube formation (tube length)
[11] = 20 μM, treatment from stage 31, Nieuwkoop & Faber stage
[12] = read-out: LEC tube formation (tube length)

Row | Structure (SMILES) | Lethality (NF) (Xenopus embryos; [7]) | Lethality (Xenopus embryos; embryonic stage) | activity at 1 µM (HUVEC [2]; [8]) [%] | Type of edema Pericordial (Xenopus embryos; embryonic stage) | activity at 1 µM (LEC [3]; [9]) [%] | activity at 10 µM (HUVEC [4]) [%] | activity at 10 µM (LEC [5]) [%] | ISV phenotype ([6]; Xenopus embryos) | PCV phenotype ([6]; Xenopus embryos) | VVN phenotype ([6]; Xenopus embryos) | activity at 1 µM (HUVEC [2]; [10]) [%] | Onset (NF) (Xenopus embryos; [11]) | activity at 1 µM (LEC [3]; [12]) [%] | blood vessel development phenotype (apj expression, in words) [6] | other results
1 | O=C1CCC(N2C(=O)c3ccccc3C2=O)C(=O)N1 (centres unmarked) [thalidomide] | – | – | – | – | – | – | – | – | – | – | – | – | – | – | penetration of embryos [1]: poorly penetrate embryos
2 | CN(C)c1ccc(O)c2c1C[C@H]1C[C@H]3[C@H](N(C)C)C(O)=C(C(N)=O)C(=O)[C@@]3(O)C(O)=C1C2=O [minocycline hydrochloride] | – | – | – | – | – | – | – | – | – | – | – | – | – | – | penetration of embryos [1]: poorly penetrate embryos
3 | COc1cc2ncnc(Nc3cccc(Cl)c3)c2cc1OC [Tyrphostin AG 1478, N-(3-Chlorophenyl)-6,7-dimethoxy-4-quinazolinamine] | 46 NF | 46 embryonic stages according to Nieuwkoop and Faber (NF) | – | – | – | – | – | – | – | – | – | – | – | – | recovery as antiangiogenic compound in the transgenic zebrafish screen [1]: recovery; scored in the phenotypic Xenopus screens (Xenopus embryos; 20 μM, known antiangiogenic compounds): active; Type of edema Periocular (Xenopus embryos; embryonic stage): 45 embryonic stages according to Nieuwkoop and Faber (NF); Cardiac phenotype (Xenopus embryos; embryonic stage, ¶ = the heart chambers were enlarged): 45¶ embryonic stages according to Nieuwkoop and Faber (NF); Type of edema Ventral (Xenopus embryos; embryonic stage, ‡ = edemas also detected in the gut): 45 embryonic stages according to Nieuwkoop and Faber (NF)
4 | N#CC(=Cc1ccc(O)c(O)c1)C(=O)Nc1ccccc1 [Tyrphostin AG 494, N-Phenyl-3,4-dihydroxybenzylidenecyanoacetamide] | 40 NF | 40 embryonic stages according to Nieuwkoop and Faber (NF) | 85 to 115 | 39 embryonic stages according to Nieuwkoop and Faber (NF) | 50 to 85 | 85 to 115 | 85 to 115 | impaired | hypoplastic | hypoplastic | – | – | – | – | effect on LEC tube formation (in words) (LEC [3]): preferentially blocked tube formation in LEC rather than HUVEC cultures
5 | O=c1c(-c2ccc(O)cc2)coc2cc(O)cc(O)c12 [Genistein, 5,7-Dihydroxy-3-(4-hydroxyphenyl)-4H-1-benzopyran-4-one] | 46 NF | 41/42 | 50 to 85 | – | 50 to 85 | 85 to 115 | 85 to 115 | stunted | normal | hyperplastic | 50 to 85 | 35/36 | 50 to 85 | stunted ISVs and hyperplastic VVN | edema or other phenotype in compound-treated Xenopus embryos/tadpoles (in words) (Xenopus embryos; 20 μM, treatment from stage 31): edemas localized to the tail tip; Type of edema Tail tip (Xenopus embryos; embryonic stage): 35/36; lymph vessel development phenotype (vegfr3 expression, in words) [6]: lymphatic vessels and LECs were absent; ALH phenotype ([6]; Xenopus embryos): impaired; ALS phenotype ([6]; Xenopus embryos): impaired; PLV phenotype ([6]; Xenopus embryos): impaired
6 | Nc1ccc2c3c(cccc13)C(=O)NC2=O [4-Amino-1,8-naphthalimide] | – | – | – | 41/42 | – | – | – | normal | normal | hyperplastic | – | 41/42 | – | hyperplasia of the VVN, while ISV angiogenesis occurred unaffected | HUVEC tube formation (HUVEC [2]; overnight): O (O, inactive or marginal effects (85-115% of control);); Embr. phen. (Xenopus embryos; embryonic phenotype in the primary screen): EDE; Type of edema Proctodeal (Xenopus embryos; embryonic stage): 47 embryonic stages according to Nieuwkoop and Faber (NF); Type of edema Periocular (Xenopus embryos; embryonic stage): 41/42*; effect on LEC tube formation (in words) (LEC [3]): preferentially blocked tube formation in LEC rather than HUVEC cultures; LEC tube formation (LEC [3]; overnight): − (−, moderate inhibition (50-85% of control):); HUVEC proliferation (HUVEC [4]): + (+, moderate promotion (>115-150% of control).); LEC proliferation (LEC [5]): O (O, inactive or marginal effects (85-115% of control);); lymph vessel development phenotype (vegfr3 expression, in words) [6]: lymphangiogenesis was largely suppressed; ALH phenotype ([6]; Xenopus embryos): stunted; ALS phenotype ([6]; Xenopus embryos): impaired; PLV phenotype ([6]; Xenopus embryos): hypoplastic
7 | COc1cc(OC)c(C=C2C(O)=Nc3ccccc32)c(OC)c1 [IC 261, 1,3-Dihydro-3-[(2,4,6-trimethoxyphenyl)methylene]-2H-indol-2-one] | 41/42 | 41/42 | 50 to 85 | 35/36 | 50 to 85 | 85 to 115 | 50 to 85 | impaired | hypoplastic | hypoplastic | 50 to 85 | 35/36 | 50 to 85 | interfered with blood vessel vasculogenesis and PCV assembly | Type of edema Proctodeal (Xenopus embryos; embryonic stage): 41/42; Type of edema Pronephric (Xenopus embryos; embryonic stage): 41/42; effect on LEC proliferation (in words) (LEC [5]): inhibited preferentially LEC proliferation
8 | CC(C)c1ccc2c(c1)c(SC(C)(C)C)c(CC(C)(C)C(=O)[O-])n2Cc1ccc(Cl)cc1.[Na+] [MK-886, 3[3-tert-Butylthio-1-(4-chlorobenzyl)-5-isopropyl-1H-indol-2-yl]-2,2-dimethylpropionic acid, sodium salt] | – | – | 50 to 85 | – | 50 to 85 | 115 to 150 | 85 to 115 | normal | normal | hypoplastic | 50 to 85 | – | 50 to 85 | hypoplasia of the VVN | edema or other phenotype in compound-treated Xenopus embryos/tadpoles (in words) (Xenopus embryos; 20 μM, treatment from stage 31): causing lethality; Lethality (NF) (Xenopus embryos; compounds causing lethality, 20 μM, treatment from stage 31, Nieuwkoop & Faber stage): 39 NF; Phenotype class in vivo ([6]; Xenopus embryos, 20 μM, vascular phenotype): VVN hypoplasia
9 | COC(=O)Nc1nc2ccc(C(=O)c3cccs3)cc2[nH]1 [Nocodazole] | 33/34 | 33/34 | < 50 | 33/34 | < 50 | 65 to 82 | 65 to 82 | impaired | hypoplastic | hypoplastic | < 35 | 33/34 | < 35 | interfered with blood vessel vasculogenesis and PCV assembly | –
